Where “and” joins values, the source holds several entries; their conditions need not be identical. Equal values may be shown once.
Columns and labels:
HSA = target: T1, HSA (Homo sapiens, UniProt P02768); test: HSA binding on Chiralpak HSA column; type: in vitro ADME; conditions: Chiralpak HSA column (50 × 3 mm, 5 μm), (n = 6)
T1 construct: purchased H13H-2433
Method: The mobile phase (A: NH4OAc, 50 mM in water, pH 7 and B: isopropanol) was freshly prepared for each experiment and only used for one day. The column was kept at room temperature and each run was stopped after detection of the signal to reduce the acquisition time. All substances were dissolved in a 0.5 mg/ml concentration in 50% 2-propanol and 50% 50 mM pH 6.9 ammonium acetate buffer. […] All nine reference substances were injected consecutively to establish a non-linear regression with Origin Pro 2016G.

[1] = Human biodistribution and uptake in tumor lesions, PET/CT SUV; type: in vivo; conditions: patients, PET/CT
Method: Human biodistribution was estimated by analysing clinical ^18F-rhPSMA-7- and ^18F-rhPSMA-7.3-PET/CT exams in 47 and 32 patients, respectively.
The mean and maximum standardized uptake values (SUVmean/SUVmax) were determined for background (gluteal muscle), normal organs (salivary glands, blood pool, lung, liver, spleen, pancreas, duodenum, kidney, bladder, bone) and three representative tumor lesions. Tumor uptake was analyzed in 89 lesions (26 primary tumors/local recurrences, 23 bone, 38 lymph node and 2 visceral metastases) and 63 lesions (14 primary tumors/local recurrences, 30 bone, 18 lymph node and 1 visceral metastases) for ^18F-rhPSMA-7 and ^18F-rhPSMA-7.3, respectively.
Organ-background and Tumor-background ratios were calculated.

[2] = Preclinical dosimetry in SCID mice, extrapolated to 70-kg Standard Adult (OLINDA/EXM 1.0); type: in vivo; conditions: extrapolated from mice
Method: 3-5 mice were injected per timepoint with a mean 25.6±3.6 MBq of 18F-rhPSMA-7 and 28.5±4.8 MBq of 18F-rhPSMA-7.3, respectively. Mice, severe combined immunodeficiency (SCID) were used for the experiments.
Urine, blood, heart, lung, spleen, pancreas, liver, stomach (emptied), small intestine (emptied), large intestine (emptied), kidneys, bladder, testis, fat, muscle (partial, femoral), femur, tail and brain. Urine was collected with a pipette in the CO2 gas chamber. In case of missing urination in the chamber the bladder was aspirated with an insulin syringe. Blood was withdrawn instantly after sacrifice with an insulin syringe from the heart. All other tissues and organs were dissected and transferred directly in plastic containers.
The counting rates of measurement samples were automatically corrected for decay. The radioactivity distribution ratios (unit: percentage of the injected dose (% ID) in the measurement samples were determined using the equation below. The sum of the counting rates from all measurement samples obtained from one mouse was designated as the counting rate for administrated radioactivity.
For consistency of statistical calculations for each radiotracer the same number of time-points for ^18F-rhPSMA-7 and ^18F-rhPSMA-7.3 was used. Therefore, for ^18F-rhPSMA-7 the 10 min and 20 min time points were combined creating a 15 min endpoint.
In brief, to calculate a human dosimetry from the biodistribution in the mice, an extrapolation was necessary to account for the differences between the animals and humans. Normal-organ radiation doses were estimated for the 70-kg Standard Adult anatomic model using time-depending organ activity concentrations (in percent of the injected dose per gram, % ID/g) and total-body activities measured in the biodistribution studies in mice.
Tissue activity concentrations in mice were converted to tissue fractional activities in the 70-kg Standard Adult using the relative fractional organ masses in the Standard Adult and the “standard” 25-gramm mouse. Time-dependent total-body activity was fit to an exponential function and the difference between the injected activity and the total-body activity was assumed to be excreted to the urine because activity concentrations in the liver and GI tracer were low at all time points studied.
Organ residence time was calculated by numerical integration using the trapezoidal rule and the rest-of-body ^18F residence times was calculated as the difference between the total-body residence time and the sum of the organ and urine residence times. The bladder contents residence time was estimated using the dynamic voiding model in the OLINDA/EXM 1.0 dosimetry software. Finally, the Standard Adult mean organ dose equivalents (in mSv/MBq) and effective dose (also in mSv/MBq) were then calculated using OLINDA/EXM 1.0.

T1 sequence (P02768 25-609): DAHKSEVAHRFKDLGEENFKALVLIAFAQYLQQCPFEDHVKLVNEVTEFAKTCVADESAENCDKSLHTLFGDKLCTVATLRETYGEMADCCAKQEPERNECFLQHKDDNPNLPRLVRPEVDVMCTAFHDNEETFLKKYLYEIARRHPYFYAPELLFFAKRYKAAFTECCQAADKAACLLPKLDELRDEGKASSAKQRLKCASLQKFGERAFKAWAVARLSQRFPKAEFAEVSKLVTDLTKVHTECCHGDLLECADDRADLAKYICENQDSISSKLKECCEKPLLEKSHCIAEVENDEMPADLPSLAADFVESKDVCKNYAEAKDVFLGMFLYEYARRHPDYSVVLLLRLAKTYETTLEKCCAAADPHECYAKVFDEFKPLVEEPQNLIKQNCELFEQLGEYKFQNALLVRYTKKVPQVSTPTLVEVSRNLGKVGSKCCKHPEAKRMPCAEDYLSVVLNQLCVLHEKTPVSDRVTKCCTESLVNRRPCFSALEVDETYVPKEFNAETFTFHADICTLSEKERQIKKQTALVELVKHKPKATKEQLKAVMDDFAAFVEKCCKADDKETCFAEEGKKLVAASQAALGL

**Q.** What does the source list for “[^19F][^natGa]D/L-Dap-R/S-DOTAGA-rhPSMA7 [rhPSMA7-rac]”?
**A.** HSA Binding (HSA): 96.7%; SUVmax mean, bladder [1]: 8.5; SUVmax mean, bloodpool [1]: 2.4; SUVmax mean, bone [1]: 1.7; SUVmax mean, duodenum [1]: 14.8; SUVmax mean, kidney [1]: 44.8; SUVmax mean, liver [1]: 9.5; SUVmax mean, lungs [1]: 1.1; SUVmax mean, pancreas [1]: 3.7; SUVmax mean, parotic gland [1]: 23.8; SUVmax mean, spleen [1]: 11.8; SUVmax mean, submandibular gland [1]: 27.0; SUVmean mean, bloodpool [1]: 2.0; SUVmean mean, duodenum [1]: 10.9; SUVmean mean, kidney [1]: 32.4; SUVmean mean, liver [1]: 7.0; SUVmean mean, lungs [1]: 0.7; SUVmean mean, pancreas [1]: 2.5; SUVmean mean, parotic gland [1]: 16.9; SUVmean mean, spleen [1]: 9.1; SUVmean mean, submandibular gland [1]: 19.6; SUVmax mean, background ([1]; gluteal muscle): 1.0; SUVmean mean, background ([1]; gluteal muscle): 0.6; SUVmean mean, bladder ([1]; listed as 18F-rhPSMA-7): 6.3; SUVmean mean, bone ([1]; non-diseased bone): 1.1; SUVmax mean, tumor ([1]; tumor lesions): 27.6; SUVmean mean, tumor ([1]; tumor lesions, listed as 18F-rhPSMA-7): 20.0±20.2 and 20.0; Effective Dose ([2]; 1.0 h bladder voiding interval): 1.22E−02 mSv/MBq; Effective Dose Equivalent ([2]; 1.0 h bladder voiding interval): 1.82E−02 mSv/MBq; Effective Dose ([2]; […] bladder voiding interval): 2.66E−02 mSv/MBq; Effective Dose Equivalent ([2]; […] bladder voiding interval): 3.56E−02 mSv/MBq
